Laboratory results reported in patent EP0799188B1, “AMIDES OF MONO AND DICARBOXYLIC ACIDS WITH GLYCOSAMINES, SELECTIVELY ACTIVE ON THE CANNABINOID PERIPHERAL RECEPTOR” (LIFEGROUP S.p.A., priority 1994, dated 1996).
Where “and” joins values, the source holds several entries; their conditions need not be identical. Identical values can stand only once. Like-named read-outs stand apart in the source and are kept apart here.

Legend:
CB2 receptor = biological target: T1, CB2 receptor (Rattus norvegicus, UniProt Q9QZN9); assay: 3H-WIN 55,212-2 binding displacement on RBL-2H3 cell membranes; settings: for IC50: RBL-2H3 cell membranes, 1% DMSO, means ± SEM
T1 construct: 30 µg membrane proteins prepared in item a); endogenous in cells; host or cells: RBL-2H3 cells (plasma membrane preparation)
T1 sequence (Q9QZN9 1-360): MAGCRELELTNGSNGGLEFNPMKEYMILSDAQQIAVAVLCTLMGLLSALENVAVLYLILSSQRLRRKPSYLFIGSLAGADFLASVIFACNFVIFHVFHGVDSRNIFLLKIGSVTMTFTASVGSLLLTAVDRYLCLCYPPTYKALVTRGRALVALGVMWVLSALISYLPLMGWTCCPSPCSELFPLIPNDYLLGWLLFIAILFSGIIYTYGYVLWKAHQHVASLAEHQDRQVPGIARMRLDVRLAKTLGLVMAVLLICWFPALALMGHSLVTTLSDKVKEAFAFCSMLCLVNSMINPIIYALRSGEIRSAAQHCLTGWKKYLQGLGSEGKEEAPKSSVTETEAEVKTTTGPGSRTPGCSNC

RBL-2H3 cells = assay: 3H-serotonin release induced by ADNP/DNP.HSA immunogenic stimulation; format: cell-based, rat; settings: for effect on serotonin release (RBL cells immunogenic activation): statement in words on Table 3; for inhibition at 100 µM / EC50 / inhibition at 60 µM / inhibition at 10 µM / inhibition at 20 µM / inhibition at 12.5 µM / inhibition at 25 µM: Rattus norvegicus; for inhibition at 10 µM: RBL-2H3, 10µM; for inhibition at 12.5 µM: RBL-2H3, 12.5µM, -WIN
[1] = solubility in organic solvents; format: physicochemical; settings: organic solvent or mixture, read-out: solubility in org. sol.
[2] = competitor 10 µM, amides in 0.1% DMSO, Anandamide and Nabilone in 0.1% ethanol
[3] = 100µM, 0.1% DMSO and 0.1% ethanol
[4] = RBL-2H3, concentration inhibiting by 50% the net release of 3H serotonin, 0.2% DMSO, 15 minutes release period, means ± SEM, read-out: EC50
[5] = RBL-2H3, concentration inhibiting by 50% the net release of 3H serotonin, 1% DMSO, 15 minutes release period, means ± SEM, read-out: EC50
[6] = RBL-2H3, inhibition of 3H-serotonin release, +anandamide (12.5 µM), read-out: ED50 (the source's name)
[7] = RBL-2H3, inhibition of 3H-serotonin release, -anandamide, read-out: ED50 (the source's name)
[8] = phosphate buffer, pH 7.4, aqueous buffer
[9] = read-out: 3H-serotonin net release inhibition (%)

C=C(C)[C@@H]1CCC(C)=C[C@H]1c1c(O)cc(CCCCC)cc1O [Cannabidiol, reference compound]
IC50 (CB2 receptor; IC50 (nM)): > 1000 nM

CCCCCCCCCCCCCCCC(=O)N[C@@H](CO)C(=O)O [Example 1, N-palmitoyl-L-serine]
IC50 (CB2 receptor; read-out: IC50): 0.04 nM and 0.05 nM | Displacement (%) (CB2 receptor; [2]): 100% | water solubility (water solubility): slightly soluble | 3H-serotonin net release (%) (RBL-2H3 cells; [3]): 0% | effect on serotonin release (RBL cells immunogenic activation) (RBL-2H3 cells): can inhibit the effects induced by mast cell activation | solubility ([1]; in DMSO): > 10000 µg/mL | solubility ([1]; in ethanol): > 10000 µg/mL

CCCCCCCCCCCC(=O)N[C@@H](CO)C(=O)O [Example 2, N-lauroyl-L-serine]
water solubility (water solubility): slightly soluble | solubility (water solubility; water): > 10000 µg/mL | inhibition at 100 µM (RBL-2H3 cells; RBL-2H3, DMSO 0.2%, 100µM): 79% | inhibition at 100 µM (RBL-2H3 cells; RBL-2H3, DMSO 1%, 100µM): 61% | solubility ([1]; in DMSO): > 10000 µg/mL | solubility ([1]; in ethanol): > 10000 µg/mL

CCCCCCCC/C=C\CCCCCCCC(=O)N[C@@H](CO)C(=O)O [Example 3, N-oleoyl-L-serine]
water solubility (water solubility): slightly soluble | solubility ([1]; in DMSO): > 10000 µg/mL

CCCCCCCCCCCC(=O)N[C@@H](CO)C(=O)OC [Example 5, N-lauroyl-L-serine methylester]
water solubility (water solubility): slightly soluble | inhibition at 100 µM (RBL-2H3 cells; RBL-2H3, DMSO 1%, 100µM): 61% | EC50 (RBL-2H3 cells; [4]): 104 ± 59 µM | solubility ([1]; in DMSO): > 10000 µg/mL | solubility ([1]; in ethanol): > 10000 µg/mL

CCCCCCCCCCCCCCCC(=O)N[C@@H](CS)C(=O)O [Example 6, N-palmitoyl-L-cysteine]
water solubility (water solubility): slightly soluble | inhibition at 60 µM (RBL-2H3 cells; RBL-2H3, DMSO 0.2%): 50% | inhibition at 100 µM (RBL-2H3 cells; RBL-2H3, DMSO 1%, 100µM): 91% | EC50 (RBL-2H3 cells; [5]): 29 ± 12 µM | solubility ([1]; in DMSO): > 10000 µg/mL

CCCCCCCCCCCCCCCC(=O)NCC(=O)O [Example 7, N-palmitoyl-glycine]
Displacement (%) (CB2 receptor; [2]): 79% | Specific binding (CB2 receptor; [2]): 297 | water solubility (water solubility): slightly soluble | 3H-serotonin net release (%) (RBL-2H3 cells; 10µM, 0.1% DMSO and 0.1% ethanol): 27% | inhibition at 10 µM (RBL-2H3 cells; + anandamide (12.5 µM), read-out: 3H-serotonin net release inhibition (%)): 24% | inhibition at 10 µM (RBL-2H3 cells; -anandamide, read-out: 3H-serotonin net release inhibition (%)): 73% | inhibition at 60 µM (RBL-2H3 cells; RBL-2H3, DMSO 0.2%): 85% | inhibition at 100 µM (RBL-2H3 cells; RBL-2H3, DMSO 1%, 100µM): 100% | EC50 (RBL-2H3 cells; [6]): > 100 µM | EC50 (RBL-2H3 cells; [7]): 4.8 µM | EC50 (RBL-2H3 cells; RBL-2H3, inhibition of serotonin release, 0.1% DMSO and 0.1% ethanol, read-out: ED50 (µm)): 4.8 µM | effect on serotonin release (RBL cells immunogenic activation) (RBL-2H3 cells): can inhibit the effects induced by mast cell activation | solubility ([1]; in DMSO): > 10000 µg/mL

CCCCCCCCCCCC(=O)NCC(=O)O [Example 8, N-lauroyl-glycine]
water solubility (water solubility): slightly soluble | solubility (water solubility; [8]): > 10000 µg/mL | inhibition at 100 µM (RBL-2H3 cells; RBL-2H3, DMSO 0.2%, 100µM): 93% | inhibition at 100 µM (RBL-2H3 cells; RBL-2H3, DMSO 1%, 100µM): 100% | EC50 (RBL-2H3 cells; [4]): 10 ± 1.5 µM | EC50 (RBL-2H3 cells; [5]): 7 ± 5 µM | solubility ([1]; in DMSO): > 10000 µg/mL | solubility ([1]; in ethanol): > 10000 µg/mL

CCCCCCCCCCCC(=O)NCC(=O)OC [Example 9, N-lauroyl-glycine methylester]
water solubility (water solubility): slightly soluble | inhibition at 100 µM (RBL-2H3 cells; RBL-2H3, DMSO 0.2%, 100µM): 55% | solubility ([1]; in DMSO): > 10000 µg/mL | solubility ([1]; in ethanol): > 10000 µg/mL

CCCCCCCCCCCCCCCC(=O)NCCC(=O)O [Example 10, N-palmitoyl-β-alanine]
water solubility (water solubility): slightly soluble | inhibition at 100 µM (RBL-2H3 cells; RBL-2H3, DMSO 0.2%, 100µM): 47% | EC50 (RBL-2H3 cells; [5]): 30 µM | solubility ([1]; in DMSO): > 5000 µg/mL | solubility ([1]; in ethanol): > 5000 µg/mL

CCCCCCCCCCCCCCCC(=O)NCCCC(=O)O [Example 11, N-palmitoyl-gamma-aminobutyric acid]
water solubility (water solubility): slightly soluble | EC50 (RBL-2H3 cells; [4]): 26 ± 18 µM | solubility ([1]; in DMSO): > 5000 µg/mL | solubility ([1]; in ethanol): > 5000 µg/mL

O=C(CCCCCCCC(=O)NC(CO)C(=O)O)NC(CO)C(=O)O (stereo not drawn) [Example 12, N,N' -bis-(1-carboxy-2-hydroxyethyl)-nonandiamide]
water solubility (water solubility): slightly soluble | solubility (water solubility; water): > 10000 µg/mL | solubility ([1]; in DMSO): > 10000 µg/mL | solubility ([1]; in ethanol): > 10000 µg/mL

O=C(O)CNC(=O)/C=C/CCCCCCCCC(=O)NCC(=O)O [Example 13, N,N'-trans-2-dodecendioyl-diglycine]
water solubility (water solubility): slightly soluble | solubility (water solubility; water): > 10000 µg/mL | inhibition at 100 µM (RBL-2H3 cells; RBL-2H3, DMSO 1%, 100µM): 54% | solubility ([1]; in DMSO): > 10000 µg/mL

CCCCCCCCCCCCCCCC(=O)N[C@H]1C(O)O[C@H](CO)[C@@H](O)[C@@H]1O (stereo partly drawn) [Example 14, N-palmitoyl-D-glucosamine]
water solubility (water solubility): slightly soluble | inhibition at 20 µM (RBL-2H3 cells; RBL-2H3, DMSO 0.2%): 76% | inhibition at 100 µM (RBL-2H3 cells; RBL-2H3, DMSO 1%, 100µM): 91% | EC50 (RBL-2H3 cells; [4]): 1.28 ± 0.38 µM | EC50 (RBL-2H3 cells; [6]): 3.3 µM | EC50 (RBL-2H3 cells; [7]): 0.51 µM | solubility ([1]; in DMSO): > 1000 µg/mL

CCCCCCCCCCCC(=O)N[C@H]1C(O)O[C@H](CO)[C@@H](O)[C@@H]1O (stereo partly drawn) [Example 15, N-lauroyl-D-glucosamine]
water solubility (water solubility): slightly soluble | inhibition at 20 µM (RBL-2H3 cells; RBL-2H3, DMSO 0.2%): 67% | inhibition at 100 µM (RBL-2H3 cells; RBL-2H3, DMSO 1%, 100µM): 86% | EC50 (RBL-2H3 cells; [4]): 12 µM | solubility ([1]; in DMSO): > 5000 µg/mL

CCCCCCCC/C=C\CCCCCCCC(=O)N[C@H]1C(O)O[C@H](CO)[C@@H](O)[C@@H]1O (stereo partly drawn) [Example 16, N-oleoyl-D-glucosamine]
water solubility (water solubility): slightly soluble | inhibition at 20 µM (RBL-2H3 cells; RBL-2H3, DMSO 0.2%): 92% | inhibition at 100 µM (RBL-2H3 cells; RBL-2H3, DMSO 1%, 100µM): 86% | EC50 (RBL-2H3 cells; [4]): 2.4 ± 0.5 µM | EC50 (RBL-2H3 cells; [6]): 4.2 µM | EC50 (RBL-2H3 cells; [7]): 2.9 µM | solubility ([1]; in DMSO): > 5000 µg/mL

CCCCCCCCCCCC(=O)N1CC(O)C[C@H]1C(=O)O (stereo partly drawn) [Example 17, N-lauroyl-4-hydroxy-L-proline]
water solubility (water solubility): slightly soluble | solubility (water solubility; [8]): > 10000 µg/mL | solubility ([1]; in DMSO): > 10000 µg/mL | solubility ([1]; in ethanol): > 10000 µg/mL

CCCCCCCCCCCCCCCC(=O)NCCO [N-(2-hydroxyethyl)-hexadecanamide, reference compound]
3H-serotonin net release (%) (RBL-2H3 cells; 100µM, 1% DMSO and 1% ethanol): 0% | EC50 (RBL-2H3 cells; RBL-2H3, inhibition of serotonin release, 1% DMSO and 1% ethanol, read-out: ED50 (µm)): 2.6 µM

CCCCC/C=C\C/C=C\CCCCCCCC(=O)NCCO [N-(2-hydroxyethyl)-linoleylamide, reference compound]
3H-serotonin net release (%) (RBL-2H3 cells; [3]): 100%

CCCCC/C=C\C/C=C\C/C=C\C/C=C\CCCC(=O)O [arachidonic acid, reference compound]
inhibition at 12.5 µM (RBL-2H3 cells; [9]): 4%

NCCO [ethanolamine, reference compound]
inhibition at 12.5 µM (RBL-2H3 cells; [9]): 6%

CCCCCc1cc(O)c2c(c1)OC(C)(C)[C@@H]1CCC(C)=C[C@@H]21 [Δ9-THC, Δ9-tetrahydrocannabinol, reference compound]
3H-serotonin net release (%) (RBL-2H3 cells; 25µM, 0.1% DMSO and 0.1% ethanol): 27% | EC50 (RBL-2H3 cells; RBL-2H3, read-out: ED50 (µm)): 5 µM | inhibition at 25 µM (RBL-2H3 cells; RBL-2H3, 25µM, -anandamide, read-out: 3H-serotonin net release inhibition (%)): 73% | EC50 (RBL-2H3 cells; RBL-2H3, read-out: ED50 (the source's name)): 5 µM | effect on serotonin release (RBL cells immunogenic activation) (RBL-2H3 cells): able to inhibit, in a concentration-dependent way

CCCCCc1cc(O)c2c(c1)OC(C)(C)C1CC=C(C)CC21 (stereo not drawn) [Δ 8-THC, Δ8-tetrahydrocannabinol, reference compound]
inhibition at 25 µM (RBL-2H3 cells; RBL-2H3, read-out: 3H-serotonin net release inhibition (%)): 100% | EC50 (RBL-2H3 cells; RBL-2H3, read-out: ED50 (µM)): 5 µM | EC50 (RBL-2H3 cells; RBL-2H3, read-out: ED50 (µm)): 5 µM | effect on serotonin release (RBL cells immunogenic activation) (RBL-2H3 cells): able to inhibit, in a concentration-dependent way
